From patent US20240158446A1, “CYCLIC COMPOUND HAVING SELECTIVE INHIBITORY ACTION ON KRAS OVER HRAS AND NRAS” (CHUGAI SEIYAKU KABUSHIKI KAISHA, priority 2021, published 2024)
Read-outs that look alike come from different tables or passages of the source.

Tests used:
[1] = biological target: GDP-bound KRAS wild-type protein (Homo sapiens, UniProt P01116); assay: Binding to KRAS by surface plasmon resonance (SPR), Single Cycle Kinetics
[2] = biological target: GDP-bound NRAS wild-type protein (Homo sapiens, UniProt P01111); assay: Binding to NRAS by surface plasmon resonance (SPR), Single Cycle Kinetics; conditions: SPR
[3] = biological target: GDP-bound HRAS wild-type protein (Homo sapiens, UniProt P01112); assay: Binding to HRAS by surface plasmon resonance (SPR), Single Cycle Kinetics; conditions: SPR
[4] = test system: human lung cancer strain NCI-H441;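 further: cell proliferation inhibition after four days measured by CellTiter-Glo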
[5] = SPR, Single Cycle Kinetics, 1:1 binding model, GDP-bound KRAS wild-type protein, read-out: KRAS KD
[6] = GDP-bound NRAS wild-type protein vs GDP-bound KRAS wild-type protein, KD ratio class
[7] = GDP-bound HRAS wild-type protein vs GDP-bound KRAS wild-type protein, KD ratio class
[8] = SPR, Single Cycle Kinetics, GDP-bound KRAS wild-type protein, read-out: KRAS KD
[9] = GDP-bound NRAS wild-type protein vs GDP-bound KRAS wild-type protein
[10] = GDP-bound HRAS wild-type protein vs GDP-bound KRAS wild-type protein
[11] = read-out: NCI-H441 cell proliferation inhibitory activity, 50% proliferation inhibitory concentration (IC50 value), NCI-H441, four days, CellTiter-Glo

Chain of GDP-bound NRAS wild-type protein (P01111 whole entry): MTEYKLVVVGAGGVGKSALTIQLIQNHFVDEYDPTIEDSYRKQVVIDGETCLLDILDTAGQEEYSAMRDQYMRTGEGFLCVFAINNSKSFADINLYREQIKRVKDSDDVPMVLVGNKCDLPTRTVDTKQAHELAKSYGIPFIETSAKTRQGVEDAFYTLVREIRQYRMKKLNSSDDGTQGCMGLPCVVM
Chain of GDP-bound KRAS wild-type protein (P01116 whole entry): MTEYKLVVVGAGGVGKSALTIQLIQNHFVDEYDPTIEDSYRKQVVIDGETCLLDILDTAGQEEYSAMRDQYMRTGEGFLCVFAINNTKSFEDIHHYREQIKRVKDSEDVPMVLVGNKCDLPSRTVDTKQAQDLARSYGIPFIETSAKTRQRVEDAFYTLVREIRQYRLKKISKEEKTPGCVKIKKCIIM
Chain of GDP-bound HRAS wild-type protein (P01112 whole entry): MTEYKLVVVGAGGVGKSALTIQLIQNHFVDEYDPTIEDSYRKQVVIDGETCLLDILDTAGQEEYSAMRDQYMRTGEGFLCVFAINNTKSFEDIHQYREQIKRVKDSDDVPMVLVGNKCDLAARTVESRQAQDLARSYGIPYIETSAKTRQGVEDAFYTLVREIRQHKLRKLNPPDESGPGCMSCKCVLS

| SMILES | IC50 [4] [nM] | Kd [1, 8] [nM] | NRAS/KRAS (ratio of KD value for NRAS to KD value for KRAS) [2, 9] | HRAS/KRAS (ratio of KD value for HRAS to KD value for KRAS) [3, 10] | further results |
| --- | --- | --- | --- | --- | --- |
| CCO[C@@H]1C[C@H]2C(=O)NC3(CC(C)(C)C3)C(=O)N(C)[C@@H](C3CCCC3)C(=O)N(C)[C@H](C(C)C)CC(=O)N(C)[C@@H](CC)C(=O)N[C@@H]([C@@H](C)CC)C(=O)N(C)CC(=O)N(C)[C@H]3C/C=C\CCN(C3=O)[C@@H](Cc3ccc(C(F)(F)F)cc3)C(=O)N(C)CC(=O)N[C@@H](CCc3cc(F)c(C(F)(F)F)c(F)c3)C(=O)N2C1 [PP1588] | 24.2 | – | – | – | Kd [1, 5]: 0.6 nM; NRAS/KRAS (ratio of KD value for NRAS to KD value for KRAS) [2, 6]: B (a compound having 3 or more and less than 10 is denoted as B); HRAS/KRAS (ratio of KD value for HRAS to KD value for KRAS) [3, 7]: B (a compound having 3 or more and less than 10 is denoted as B) |
| CCO[C@H](C)[C@@H]1NC(=O)[C@H](CC(C)C)N(C)C(=O)C[C@@H](C(=O)N(C)C)N(C)C(=O)[C@H](C2CCCC2)N(C)C(=O)C2(CC(C)(C)C2)NC(=O)[C@@H]2C[C@H](C)CN2C(=O)[C@H](CCc2ccc(C(F)(F)F)c(OC)c2)NC(=O)CN(C)C(=O)[C@H](Cc2ccc(C)cc2)N2CC/C=C\C[C@@H](C2=O)N(C)C(=O)CN(C)C1=O [PP2412] | 21 | 0.15 | A (a compound having 10 or more and less than 20 is denoted as A) | B (a compound having 3 or more and less than 10 is denoted as B) | – |
| CCC[C@H]1C(=O)N[C@@H]([C@@H](C)CC)C(=O)N(C)CC(=O)N(C)[C@H]2C/C=C\CCN(C2=O)[C@@H](Cc2ccc(C(F)(F)F)cc2)C(=O)N(C)CC(=O)N[C@@H](CCc2cc(F)c(C(F)(F)F)c(F)c2)C(=O)N2C[C@H](OCC)C[C@H]2C(=O)N(C)C2(CCC2)C(=O)N(C)[C@@H](C2CCCC2)C(=O)N(C)[C@H](C(=O)N2CCCCC2)CC(=O)N1C [PP3118, (2S,8S,12R,14S,20S,23S,27S,30S,36S,38Z)-20-cyclopentyl-8-[2-[3,5-difluoro-4-(trifluoromethyl)phenyl]ethyl]-12-ethoxy-4,16,19,22,26,32,35-heptamethyl-30-[(1S)-1-methylpropyl]-23-(piperidine-1-carbonyl)-27-propyl-2-[[4-(trifluoromethyl)phenyl]methyl]spiro[1,4,7,10,16,19,22,26,29,32,35-undecazatricyclo[34.5.1.0^10,14]dotetracont-38-ene-17,1′-cyclobutane]-3,6,9,15,18,21,25,28,31,34,42-undecone] | – | 0.12 | A (a compound having 10 or more and less than 20 is denoted as A) | B (a compound having 3 or more and less than 10 is denoted as B) | Kd ([1]; SPR, Single Cycle Kinetics, 1:1 binding model, read-out: KD value with respect to GDP-bound KRAS wild-type protein): 0.12 nM; ratio of the KD value with respect to GDP-bound NRAS wild-type protein to the KD value with respect to KRAS [2]: A (a compound having 10 or more and less than 20 is denoted as A); ratio of the KD value with respect to GDP-bound HRAS wild-type protein to the KD value with respect to KRAS [3]: B (a compound having 3 or more and less than 10 is denoted as B); IC50 [4, 11]: 6.7 nM |
| CCO[C@@H]1C[C@H]2C(=O)NC3(CCC3)C(=O)N(C)[C@@H](C3CCCC3)C(=O)N(CCc3ccccc3)[C@H](C(=O)N3CCOCC3)CC(=O)N(C)[C@@H](CC(C)C)C(=O)N[C@@H]([C@@H](C)CC)C(=O)N(C)CC(=O)N(C)[C@H]3CCCCN(C3=O)[C@@H](Cc3ccc(C(F)(F)F)cc3)C(=O)N(C)CC(=O)N[C@@H](CCc3cc(F)c(C(F)(F)F)c(F)c3)C(=O)N2C1 [PP0652] | 208 | – | – | – | Kd ([1]; SPR Single Cycle Kinetics, GDP-bound KRAS wild-type protein, 1:1 binding model, read-out: KRAS KD): 2.5 nM; NRAS/KRAS (ratio of KD value with respect to NRAS to KD value with respect to KRAS) [2, 9]: B (a compound having 3 or more and less than 10 is denoted as B); HRAS/KRAS (ratio of KD value with respect to HRAS to KD value with respect to KRAS) [3, 10]: B (a compound having 3 or more and less than 10 is denoted as B) |
| CCCC[C@H]1C(=O)N[C@@H]([C@@H](C)CC)C(=O)N(C)CC(=O)N(C)[C@H]2C/C=C\CCN(C2=O)[C@@H](Cc2ccc(C(F)(F)F)cc2)C(=O)N(C)CC(=O)N[C@@H](CCc2cc(F)c(C(F)(F)F)c(F)c2)C(=O)N2C[C@H](OCC)C[C@H]2C(=O)NC2(CCC2)C(=O)N(C)[C@@H](C2CCCC2)C(=O)N(C)[C@H](C(=O)N(C)CC)CC(=O)N1C [PP1558] | 3.4 | – | – | – | Kd [1, 5]: 0.11 nM; NRAS/KRAS (ratio of KD value for NRAS to KD value for KRAS) [2, 6]: A (a compound having 10 or more and less than 20 is denoted as A); HRAS/KRAS (ratio of KD value for HRAS to KD value for KRAS) [3, 7]: B (a compound having 3 or more and less than 10 is denoted as B) |
| CC[C@H](C)[C@@H]1NC(=O)[C@H](CC)N(C)C(=O)C[C@@H](C(=O)N(C)C)N(C)C(=O)[C@H](C2CCCC2)N(C)C(=O)C2(CCC2)NC(=O)CN(CC)C(=O)[C@H](CCc2cc(F)c(C(F)(F)F)c(F)c2)NC(=O)CN(C)C(=O)[C@H](Cc2ccc(C(F)(F)F)cc2)N2CC/C=C\C[C@@H](C2=O)N(C)C(=O)CN(C)C1=O [PP1143] | 75.3 | 0.17 | A (a compound having 10 or more and less than 20 is denoted as A) | A (a compound having 10 or more and less than 20 is denoted as A) | – |
| CCCO[C@@H]1C[C@H]2C(=O)NC3(CC(C)(C)C3)C(=O)N(C)[C@@H](C3CCCC3)C(=O)N(C)[C@H](C(=O)N(C)CC)CC(=O)N(C)[C@H]3CCCc4ccc(cc4)C[C@@H](C(=O)N(C)CC(=O)N[C@@H](CCc4ccc(Cl)c(Cl)c4)C(=O)N2C1)N1CC/C=C\C[C@@H](C1=O)N(C)C(=O)CN(C)C(=O)[C@H]([C@@H](C)CC)NC3=O [PP3089] | – | 0.33 | B (a compound having 3 or more and less than 10 is denoted as B) | B (a compound having 3 or more and less than 10 is denoted as B) | ratio of the KD value with respect to GDP-bound NRAS wild-type protein to the KD value with respect to KRAS [2]: B (a compound having 3 or more and less than 10 is denoted as B); ratio of the KD value with respect to GDP-bound HRAS wild-type protein to the KD value with respect to KRAS [3]: B (a compound having 3 or more and less than 10 is denoted as B); IC50 [4, 11]: 27 nM |
| CCOC[C@H]1C(=O)N[C@@H]([C@@H](C)CC)C(=O)N(C)CC(=O)N(C)[C@H]2C/C=C\CCN(C2=O)[C@@H](Cc2ccc(C)cc2)C(=O)N(C)CC(=O)N[C@@H](CCc2ccc(C(F)(F)F)c(OC)c2)C(=O)N2C[C@H](C)C[C@H]2C(=O)NC2(CC(C)(C)C2)C(=O)N(C)[C@@H](C2CCCC2)C(=O)N(C)[C@H](C(=O)N(C)C)CC(=O)N1C [PP2393] | 28.2 | 0.12 | A (a compound having 10 or more and less than 20 is denoted as A) | A (a compound having 10 or more and less than 20 is denoted as A) | – |
| CCO[C@@H]1C[C@H]2C(=O)NC3(CCC3)C(=O)N(C)[C@@H](C3CCCC3)C(=O)N(C)[C@H](C(=O)N3CCCC3)CC(=O)N(C)[C@@H](CC3CCCCC3)C(=O)N[C@@H]([C@@H](C)CC)C(=O)N(C)CC(=O)N(C)[C@H]3C/C=C\CCN(C3=O)[C@@H](Cc3ccc(C(F)(F)F)cc3)C(=O)N(C)CC(=O)N[C@@H](CCc3cc(F)c(C(F)(F)F)c(F)c3)C(=O)N2C1 [PP1419] | 40.4 | – | – | – | Kd [1, 5]: 0.26 nM; NRAS/KRAS (ratio of KD value for NRAS to KD value for KRAS) [2, 6]: AA (a compound having 20 or more is denoted as AA); HRAS/KRAS (ratio of KD value for HRAS to KD value for KRAS) [3, 7]: A (a compound having 10 or more and less than 20 is denoted as A) |
| CCO[C@@H]1C[C@H]2C(=O)NC3(CCC3)C(=O)N(C)[C@@H](C3CCCC3)C(=O)N(C)[C@H](C(=O)N3CCOCC3)CC(=O)N(C)[C@@H](Cc3ccc(Cl)c(Cl)c3)C(=O)N[C@@H]([C@@H](C)CC)C(=O)N(C)CC(=O)N(C)[C@H]3CCCCCN(C3=O)[C@@H](Cc3ccc(C(F)(F)F)cc3)C(=O)N(C)CC(=O)N[C@@H](CCc3cc(F)c(C(F)(F)F)c(F)c3)C(=O)N2C1 [PP1168] | 338 | 1.8 | A (a compound having 10 or more and less than 20 is denoted as A) | A (a compound having 10 or more and less than 20 is denoted as A) | – |
| CCO[C@@H]1C[C@H]2C(=O)N(C)C3(CC(C)(C)C3)C(=O)N(C)[C@@H](C3CCCC3)C(=O)N(C)[C@H](C(=O)N(C)C)CC(=O)N(C)[C@H]3CCC/C=C/c4ccc(cc4)C[C@@H](C(=O)N(C)CC(=O)N[C@@H](CCc4ccc(Cl)c(Cl)c4)C(=O)N2C1)N1CC/C=C\C[C@@H](C1=O)N(C)C(=O)CN(C1CC1)C(=O)[C@H]([C@@H](C)CC)NC3=O [PP3061] | 4.4 | 0.13 | A (a compound having 10 or more and less than 20 is denoted as A) | A (a compound having 10 or more and less than 20 is denoted as A) | – |
